The values below come from PMC6154976, “The potential HLA Class I-restricted epitopes derived from LeIF and TSA of Leishmania donovani evoke anti-leishmania CD8+ T lymphocyte response” (Scientific Reports, 2018).

“Also recorded” adds a separate entry of the source.

Test [1] deals with HLA-A*0201 molecule on T2 cells (Homo sapiens, UniProt P04439, D140Y/D185E/D98H/E176V/E277Q/G131W/G231S/I119V/I121R/I166T/I218V/L300P/L318F/N151K/N90K/P208A/P217A/Q86G/Q94H/R138H/R169H/T345S). As to the kind of experiment: Peptide-binding assay (HLA stabilization assay, T2 cell line). It is filed as cell-based. The conditions noted are these: 20 μg/mL peptide, 20 hours, FI more than 1 = strong binding, Fig. S2; for fluorescence index (FI) value: T2 cells 2 × 10^5/well, serum-free RPMI, 37 °C, FACS, PE anti-HLA-A 02 (BB7.2), triplicate. Here is the method:
The efficiency of the shortlisted epitopes to stabilize the HLA-A 02 allele was measured by HLA stabilization assay using TAP-deficient human cell line that express HLA-A2 (T2 cell line) according to our previously described methodology with certain modifications. Briefly, T2 cells (2 × 10^5/well) were cultured with 20 μg/mL of individual peptides in serum-free RPMI medium for 20 hours at 37 °C in 5% CO2. The HLA stabilization assay was performed in triplicate for each peptide. The tumor HLA A2 bound 10mer peptide was used as positive control. The expression of HLA-A 02 on T2 cells was measured by PE-conjugated mouse anti-human HLA-A 02 monoclonal antibody (clone: BB7.2; Pharmingen), the samples were acquired by FACS Calibur and analyzed by CellQuest software (BD Biosciences). The binding affinity of each peptide was measured by a fluorescence index: FI = (mean PE fluorescence with the given peptide−mean PE fluorescence without peptide)/(mean […] fluorescence without peptide). The epitope with a fluorescence index (FI) more than 1 was considered as strong binding affinity epitopes.

The subject of test [2] is PBMCs from HLA A2 negative VL treated subjects. As to the kind of experiment: Intracellular IFN-γ from CD8+ T cells (FACS). It is filed as cell-based, human. To be noted: six HLA A2 negative subjects, overnight plus 6 h brefeldin-A. As for the experimental part: To evaluate the ability of the selected epitopes to trigger the immune cells by CD8+ T cell dependent manner, PBMCs (1 × 10^6/ml) from five HLAA2 positive VL treated subjects were incubated for overnight in the presence or absence of peptide at 37 °C and 5% CO2. Additionally, six HLA A2 negative VL treated subjects were also considered for this study. Stimulation with SLA was run in parallel to all experiments as described previously. After overnight incubation followed by 6 h incubation with brefeldin-A (1 mg/ml), cells were harvested, washed with PBS, and stained with anti-CD3-PerCP (BD Biosciences) and anti-CD8-FITC(BD Biosciences) conjugated antibodies for 30 min at 4 °C. The cells were then washed with stain buffer, fixed and permeabilized Cytofix-Cytoperm buffer (BD Biosciences) for 20 minutes at 4 °C. The intracellular level of IFN-γ was stained with anti-IFN-γ PE-conjugated antibody (BD Biosciences) for 30 minutes and washed with perm wash buffer (BD Biosciences). A logical gate set using was used to measure the co-expression of intracellular CD8+ ve IFN-γ. At least 30 000 cells were acquired for each analysis, and the results are shown in percentage gated value (% gated).

FIIDPNGMV [P8]: the “binding to / stabilization of HLA-A*0201 on T2 cells, in words” value (“binding to / stabilization” below) in test [1] is on record as “relatively weakly bound”.

KVLTLFAEV [P5]: in test [1], the “fluorescence index (FI) value” was “above 2” and the “binding to / stabilization” value was “stabilized the HLA A2; also recorded: strongly bound”. Further, the “intracellular CD3+ ve CD8+ ve IFN-γ” value in test [2] is “triggered the HLA A2-ve host immune cells by producing CD8+ IFN-γ; also recorded: triggered CD3+ ve CD8+ ve IFN-γ level; also recorded: enhanced CD3+ CD8+ IFN-γ”.

As for LLLAEPFPV [P4], in test [1], the “fluorescence index (FI) value” was 1.81 and the “binding to / stabilization” value is recorded as “stabilized the HLA A2; also recorded: strongly bound”. Further, in test [2], the “intracellular CD3+ ve CD8+ ve IFN-γ” value is reported as “triggered the HLA A2-ve host immune cells by producing CD8+ IFN-γ”.

Consider MLADKTKSI [P6], for which, in test [1], the “binding to / stabilization” value is “relatively weakly bound”.

For the sequence RLLEAFQFV [P7], in test [1], the “fluorescence index (FI) value” is “above 2” and the “binding to / stabilization” value is listed as “stabilized the HLA A2; also recorded: strongly bound”. Further, the “intracellular CD3+ ve CD8+ ve IFN-γ” value in test [2] is listed as “triggered CD3+ ve CD8+ ve IFN-γ level; also recorded: enhanced CD3+ CD8+ IFN-γ”.

Regarding SLARRKLLL [P3], the “binding to / stabilization” value in test [1] was “relatively weakly bound”.

In the case of SMDSEYAHL [P9], in test [1], the “binding to / stabilization” value is reported as “relatively weakly bound”.

Regarding TLDHLLVLL [P1], in test [1], the “fluorescence index (FI) value” was “above 2” and the “binding to / stabilization” value is “stabilized the HLA A2; also recorded: strongly bound”. Also, the “intracellular CD3+ ve CD8+ ve IFN-γ” value in test [2] is “triggered the HLA A2-ve host immune cells by producing CD8+ IFN-γ; also recorded: triggered CD3+ ve CD8+ ve IFN-γ level; also recorded: enhanced CD3+ CD8+ IFN-γ”.

In the case of VLLEKATIL [P2], in test [1], the “fluorescence index (FI) value” is recorded as “above 2” and the “binding to / stabilization” value was “stabilized the HLA A2; also recorded: strongly bound”.
